Laboratory results reported in patent US20250154115A1, “ARYLBENZOISOXAZOLE COMPOUNDS AS IP6K AND IPMK INHIBITORS AND METHODS OF USE THEREOF” (THE UNIVERSITY OF NORTH CAROLINA AT CHAPEL HILL, priority 2022, published 2025).

What was measured:
Assay type in all cases: biochemical
IP6K3 = IP6K3 (Homo sapiens (Human), UniProt Q96PC2); assay: Enzyme-coupled assay of IP6K3 activity (Dipp1-coupled, malachite green Pi release)
IPMK = IPMK (Homo sapiens (Human), UniProt Q8NFU5); assay: Enzyme-coupled assay, IPMK IC50
IPMK, sequence (Q8NFU5 whole entry, species assumed): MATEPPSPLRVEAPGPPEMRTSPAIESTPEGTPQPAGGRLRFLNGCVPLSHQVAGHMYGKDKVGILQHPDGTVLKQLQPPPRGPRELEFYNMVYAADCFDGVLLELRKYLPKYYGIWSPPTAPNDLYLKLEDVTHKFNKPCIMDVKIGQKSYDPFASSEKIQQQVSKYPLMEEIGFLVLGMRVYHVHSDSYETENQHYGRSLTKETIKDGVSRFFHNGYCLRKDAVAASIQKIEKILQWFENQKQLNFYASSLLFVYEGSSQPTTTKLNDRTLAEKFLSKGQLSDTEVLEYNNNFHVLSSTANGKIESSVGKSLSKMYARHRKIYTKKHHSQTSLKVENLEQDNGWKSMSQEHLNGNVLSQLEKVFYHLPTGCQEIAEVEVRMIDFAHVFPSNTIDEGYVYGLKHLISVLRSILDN

IP6K1 = IP6K1 (Homo sapiens (Human), UniProt Q92551); assay: Enzyme-coupled assay of IP6K1 activity (Dipp1-coupled, malachite green Pi release)
IP6K1, sequence (Q92551 whole entry): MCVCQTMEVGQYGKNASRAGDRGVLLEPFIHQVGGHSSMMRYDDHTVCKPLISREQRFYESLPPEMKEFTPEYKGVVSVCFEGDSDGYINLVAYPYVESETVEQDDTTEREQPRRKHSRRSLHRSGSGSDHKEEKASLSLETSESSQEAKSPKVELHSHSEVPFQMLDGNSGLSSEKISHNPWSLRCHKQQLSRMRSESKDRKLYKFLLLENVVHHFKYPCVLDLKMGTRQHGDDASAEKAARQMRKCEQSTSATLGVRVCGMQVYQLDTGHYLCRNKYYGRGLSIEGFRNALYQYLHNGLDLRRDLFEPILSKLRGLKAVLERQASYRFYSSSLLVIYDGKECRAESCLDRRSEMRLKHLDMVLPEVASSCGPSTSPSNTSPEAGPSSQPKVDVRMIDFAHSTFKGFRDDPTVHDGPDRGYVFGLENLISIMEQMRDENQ
Method: (§1) […] The cells were disrupted using a constant cell disruption system (Constant Systems) under 20 kPsi.
(§2) Pi release was determined with a malachite green colorimetric assay.^45 Where indicated, TNP (Cayman Chemical) was added to the assays (FIG. 2A-E).

IP6K2 = IP6K2 (Homo sapiens (Human), UniProt Q9UHH9); assay: Enzyme-coupled assay of IP6K2 activity (Dipp1-coupled, malachite green Pi release)
IP6K2, sequence (Q9UHH9 whole entry): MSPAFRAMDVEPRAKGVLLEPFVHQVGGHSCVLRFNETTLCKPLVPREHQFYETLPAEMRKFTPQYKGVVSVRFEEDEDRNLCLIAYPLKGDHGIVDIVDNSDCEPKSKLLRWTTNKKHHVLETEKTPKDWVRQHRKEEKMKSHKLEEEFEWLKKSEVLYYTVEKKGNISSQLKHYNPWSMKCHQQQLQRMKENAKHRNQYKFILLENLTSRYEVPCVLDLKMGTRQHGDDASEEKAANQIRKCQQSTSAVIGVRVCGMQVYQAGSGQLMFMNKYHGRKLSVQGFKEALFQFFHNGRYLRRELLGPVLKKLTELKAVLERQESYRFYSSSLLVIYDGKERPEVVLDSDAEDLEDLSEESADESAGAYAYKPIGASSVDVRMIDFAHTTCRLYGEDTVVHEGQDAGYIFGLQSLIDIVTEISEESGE
Method: as §1, §2

[1] = determined from enzyme-coupled assays

IP6K3, sequence (Q96PC2 whole entry): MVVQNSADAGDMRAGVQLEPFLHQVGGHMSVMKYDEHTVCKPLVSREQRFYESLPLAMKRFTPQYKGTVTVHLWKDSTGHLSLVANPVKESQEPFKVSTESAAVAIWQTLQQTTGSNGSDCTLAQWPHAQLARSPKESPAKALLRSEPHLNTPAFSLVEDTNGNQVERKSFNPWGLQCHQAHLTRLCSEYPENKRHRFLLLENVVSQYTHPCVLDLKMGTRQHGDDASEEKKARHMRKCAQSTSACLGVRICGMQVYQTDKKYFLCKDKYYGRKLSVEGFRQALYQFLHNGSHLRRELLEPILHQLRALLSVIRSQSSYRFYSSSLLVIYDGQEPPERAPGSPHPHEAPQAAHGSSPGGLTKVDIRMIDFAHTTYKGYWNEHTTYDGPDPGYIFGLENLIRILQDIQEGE

SMILES | IC50 (IP6K1; enzyme-coupled assay, Table 4) [nM] | IC50 (IP6K2; enzyme-coupled assay, Table 4) [nM] | IC50 (IP6K3; enzyme-coupled assay, Table 4) [nM] | IC50 (IPMK; enzyme-coupled assay, Table 4) [nM] | further results
O=C(O)c1ccc2noc(-c3cccc(Oc4ccccn4)c3)c2c1 [Compound 29] |  |  |  |  | IC50 (IP6K3; enzyme-coupled assay, Table 2): 1000 to 100000 nM; IC50 (IPMK; enzyme-coupled assay, Table 2): 1000 to 100000 nM
c1ccc(Oc2ccc(-c3onc4ccc(-c5nnn[nH]5)cc34)cc2)cc1 [Compound 70] | 1000 to 100000 | 100 to 1000 | 100 to 1000 | < 10 | 
O=C(Nc1cccc(-c2onc3ccc(-c4nnn[nH]4)cc23)c1)C1CC1 [Compound 74] | 10 to 100 | 10 to 100 | 10 to 100 | < 10 | 
COc1ccccc1-c1onc2ccc(-c3nnn[nH]3)cc12 [Compound 77] | 10 to 100 | 10 to 100 | 100 to 1000 | 10 to 100 | 
Clc1ccc(-c2onc3ccc(-c4nnn[nH]4)cc23)cc1Cl [Compound 67] | 10 to 100 | 100 to 1000 | 100 to 1000 | 10 to 100 | 
O=C(O)/C=C/c1ccc2noc(-c3ccc(OC(F)(F)F)cc3)c2c1 [Compound 14] |  |  |  |  | IC50 (IP6K3; enzyme-coupled assay, Table 1): 1000 to 100000 nM
O=c1[nH]c(-c2ccc3noc(-c4ccccc4)c3c2)no1 [Cmpd 124] |  |  |  |  | IC50 (IP6K1; [1]): 100 to 1000 nM; IC50 (IP6K2; [1]): 100 to 1000 nM; IC50 (IP6K3; [1]): 100 to 1000 nM; IC50 (IPMK; [1]): 10 to 100 nM
Fc1ccc(-c2onc3ccc(-c4nnn[nH]4)cc23)cc1 [Compound 63] | 10 to 100 | 10 to 100 | 100 to 1000 | 10 to 100 | 
c1ccc(-c2onc3ccc(-c4nnn[nH]4)cc23)cc1 [Compound 59] | 10 to 100 | 10 to 100 | 100 to 1000 | 10 to 100 | 
O=C(O)c1ccc2noc(-c3ccc(NC(=O)C4CC4)cc3)c2c1 [Compound 35] |  |  |  |  | IC50 (IP6K1; enzyme-coupled assay, Table 2): 1000 to 100000 nM; IC50 (IP6K2; enzyme-coupled assay, Table 2): 1000 to 100000 nM; IC50 (IP6K3; enzyme-coupled assay, Table 2): 100 to 1000 nM; IC50 (IPMK; enzyme-coupled assay, Table 2): 1000 to 100000 nM
O=C(O)c1ccc2noc(-c3ccc(NC(=O)c4ccncn4)cc3)c2c1 [Compound 47] |  |  |  |  | IC50 (IP6K3; enzyme-coupled assay, Table 2): 100 to 1000 nM; IPMK IC50 (IPMK; enzyme-coupled assay, Table 2): −
O=C(O)/C=C/c1ccc2noc(-c3ccccc3)c2c1 [Compound 10] |  |  |  |  | IC50 (IP6K1; enzyme-coupled assay, Table 1): 100 to 1000 nM; IC50 (IP6K3; enzyme-coupled assay, Table 1): 1000 to 100000 nM
O=C(O)c1ccc2noc(-c3ccc(N4CCCC4=O)cc3)c2c1 [Compound 56] |  |  |  |  | IC50 (IP6K3; enzyme-coupled assay, Table 3): 1000 to 100000 nM; IC50 (IPMK; enzyme-coupled assay, Table 3): 1000 to 100000 nM
c1ccc(-c2onc3ccc(-c4nc[nH]n4)cc23)cc1 [Compound 60] | 1000 to 100000 | 100 to 1000 | 1000 to 100000 | 10 to 100 | 
